In brackets after ≈: the same amount, converted by molar mass.
test system: ATCC 35837: Ethanmbutol resistant Mycobacterium tuberculosis; assay: Assay for in vitro antibacterial activity, agar dilution method: ATCC 35837; format: cell-based; conditions: Mycobacterium tuberculosis, ATCC35837, read-out: Antibacterial Activity (MIC50) ATCC 35837

First: N[C@@H]1CON=C1O [Cycloserine, reference compound]
Second: CC(=O)NC[C@H]1CN(c2ccc(N3CCOCC3)c(F)c2)C(=O)O1 [Example U-100766, reference compound]
The MIC50 of the first is 4-fold higher: 6.25 µg/mL (≈ 61.2 µM) for the first, 1.56 µg/mL (≈ 4.62 µM) for the second.

For CO[C@H]1/C=C/O[C@@]2(C)Oc3c(C)c(O)c4c(O)c(c(/C=N/N5CCN(C)CC5)c(O)c4c3C2=O)NC(=O)/C(C)=C\C=C\[C@H](C)[C@H](O)[C@@H](C)[C@@H](O)[C@@H](C)[C@H](OC(C)=O)[C@@H]1C [Rifampin, reference compound], the MIC50 was 0.2 µg/mL (≈ 0.243 µM).

same assay, conditions: agar dilution method; Ethanmbutol resistant Mycobacterium tuberculosis

First: CC(=O)NC[C@H]1CN(c2ccc(-c3ccc(-n4cncn4)nc3)c(F)c2)C(=O)O1 [Exmp. 129, (S)-[N-3-(4-(2-(1,2,4-triazol-1-yl)pyridin-5-yl)-3-fluorophenyl)-2-oxo-5-oxazolidinyl]methyl acetamide]
Second: CC(=O)NC[C@H]1CN(c2ccc(-c3ccc(-n4cnnn4)nc3)c(F)c2)C(=O)O1 [Exmp. 136, (S)-(N-3-(4-(2-(1-tetrazolyl)-pyridin-5-yl)-3-fluorophenyl)-2-oxo-5-oxazolidinyl)methyl acetamide]
The “Antibacterial Activity (MIC50) ATCC 35837” value (“Antibacterial Activity” below) of the first is 2-fold higher: 0.2 µg/mL for the first, 0.1 µg/mL for the second.

CC(=O)NC[C@H]1CN(c2ccc(-c3ccc(-c4nnc(C)o4)nc3)c(F)c2)C(=O)O1 [Exmp. 137, (S)-[N-3-(4-(2-(5-methyl-(1,3,4)-oxadiazol-2-yl)-pyridin-5-yl)-3-fluorophenyl)-2-oxo-5-oxazolidinyl]methyl acetamide] and CC(=O)NC[C@H]1CN(c2ccc(-c3ccc(-c4noc(C)n4)nc3)c(F)c2)C(=O)O1 [Exmp. 138, (S)-[N-3-(4-(2-(5-methyl-(1,2,4)-oxadiazol-3-yl)pyridin-5-yl)-3-fluorophenyl)-2-oxo-5-oxazolidinyl]methyl acetamide] are the same in “Antibacterial Activity” value: 0.1 µg/mL for the first, 0.1 µg/mL for the second.

CC(=O)NC[C@H]1CN(c2ccc(-c3ccc(-c4nnnn4C)nc3)c(F)c2)C(=O)O1 [Exmp. 139, (S)-[N-3-(4-(2-(1-methyl-5-tetrazolyl)-pyridin-5-yl)-3-fluorophenyl)-2-oxo-5-oxazolidinyl]methyl acetamide] and CC(=O)NC[C@H]1CN(c2ccc(-c3ccc(-c4nnn(C)n4)nc3)c(F)c2)C(=O)O1 [Exmp. 140, (S)-[N-3-(4-(2-(2-methyl-5-tetrazolyl)-pyridin-5-yl)-3-fluorophenyl)-2-oxo-5-oxazolidinyl]methyl acetamide] are the same in “Antibacterial Activity” value: 0.1 µg/mL for the first, 0.1 µg/mL for the second.

In the case of CC(=O)NC[C@H]1CN(c2ccc(-c3ccc(N4CCOC4=O)nc3)c(F)c2)C(=O)O1 [Exmp. 143, (S)-[N-3-(4-(2-(2-oxo-(1,3)-oxazolidin-3-yl)-pyridin-5-yl)-3-fluorophenyl)-2-oxo-5-oxazolidinyl]methyl acetamide], the “Antibacterial Activity” value was 0.1 µg/mL.

CC(=O)NC[C@H]1CN(c2ccc(-c3ccc(-c4nnn[nH]4)nc3)c(F)c2)C(=O)O1 [Exmp. 152, (S)-[N-3-(4-(2-(5-Tetrazolyl)-5-pyridinyl)-3-fluorophenyl)-2-oxo-5-oxazolidinyl]methyl Acetamide] was tested, and the “Antibacterial Activity” value was over 25 µg/mL.

Source: patent publication US6689779B2, “Oxazolidinone derivatives and a process for the preparation thereof” (priority 2000, dated 2004)
